Test results reported in patent US20070281028A1, “Drug Delivery of a Cox Inhibitor from Embolic Agents” (Biocompatibles Uk Limited, priority 2004, published 2007).
Several values for one entry are separate records, joined by “and”; a condition that tells them apart may be missing. Identical values can stand only once. Each block holds one compound with its values, some of them ahead of it.

How the values were obtained:
[1] = Loading (uptake) of drug into microspheres, from depletion of loading solution (UV/HPLC); format: physicochemical; conditions: for ketoprofen loaded/ml spheres, maximum loading: at 24 hours; for dose loaded per ml of hydrated microspheres: 5 ml of 100 mg/ml drug in ethanol added to 0.5 ml microspheres; for ketorolac loaded in microspheres: low AMPS 500-710 μm, loaded from water
Procedure: A solution of 100 mg/ml flurbiprofen (Sigma) in ethanol was prepared. […] Low AMPS and high AMPS microspheres of size 500-710 μm were used and drug uptake monitored by UV. The samples were agitated on a roller mixer. Aliquots of supernatant were taken at 10, 20, 30, 60 mins and then at 2 hr, out to 24 hr. Uptake was calculated from the flurbiprofen remaining in solution. […] Microspheres of the present invention of each size loaded with 200 mg/ml flurbiprofen were placed in 250 ml water at 37° C.
The samples were agitated on a roller mnixer.
5 ml of the solution was added to 0.5 ml of low AMPS microspheres, of size 500-710 μm, and uptake monitored by HPLC. The samples were agitated on a roller mixer. Aliquots of supernatant were taken at 5, 10, 20 40 and 60 mins and then 24 hr.
The samples were agitated on a roller mixer. Samples of the supernatant were taken at 10, 20, 40, 60 mins and 24 hrs. […] Elution experiments were carried out on these microspheres (table 1). Microspheres were washed to determine quick burst in various media as in table 1. Then samples were placed in 10 ml solvent and absorbance read after 10 mins, a further 20 ml added and absorbance read after 10 mins, this was repeated up to 90 mls and elution was monitored up to 24 hrs (table 1).
Once prepared, the absorbances of the solutions were read by UV at 263 nm and dilutions were made to produce a standard curve. […] The vials were placed on a roller mixer at room temperature for the entire experiment. At a predetermined time points (0, 10, 20, 30 and 60 min) 100 μl was removed, diluted as necessary (1/200) and read at 263 nm. From the readings and the standard curve, the concentration of the solution at each time point was calculated. The amount of drug loaded onto the beads was measured by the depletion of the drug in solution when extracted with the beads. From the data the mg drug loaded per 1 ml of hydrated beads were calculated and the graph plotted.
Five samples of 1 ml of hydrated beads Low AMPS 700 to 1100 μm were used. For each sample, 1 ml of beads in phosphate buffered saline (PBS), measured with a 10 ml—glass cylinder, was transferred to a glass container and all the PBS was carefully removed with a glass Pasteur pipette. […] Once prepared, the absorbances of the solution and dilutions were read by UV at 263 nm to produce a standard curve. […] The vials were placed on the roller mixer at room temperature for the entire experiment. At predetermined time points (0, 20, 40, 60 and 120 min) 100 μl was removed, diluted as necessary (1/200) and read at 263 nm. From the readings and the standard curve, the concentration of the solution at each time point was calculated. The amount of drug loaded onto the beads was measured by the depletion of the drug in solution. From the data the mg drug loaded per 1 ml of beads were calculated and the graph plotted (FIG. 12).
Six samples of 1 ml of beads (700-1100 μm) were used. For each sample, 1 ml of beads in phosphate buffered saline (PBS), measured with a 10 ml glass cylinder, was transferred to a glass container and all the PBS was carefully removed with a glass Pasteur pipette. […] Once prepared, the absorbances of the solution and dilutions of the aqueous and of the alcoholic solutions were read by UV at 263 nm to produce standard curves. […] The vial was placed on the roller mixer at room temperature for the entire experiment. Once loaded, the remaining solution was removed, measured in a graduated measurement cylinder and read at 263 nm.

[2] = Release (elution) of drug from loaded microspheres in vitro; format: physicochemical; conditions: for salicylic acid loaded that was released: 100 ml water, majority within the first 15 minutes
HIF-2 alpha = conditions: COX-2 independent; cited from earlier work
HIF-1 alpha = conditions: COX-2 independent; cited from earlier work
COX-2/COX-1 = conditions: 0 = equal potency; above 0 more selective to COX-1, below 0 more selective to COX-2; cited from earlier work
[3] = test system: colorectal cancer cell line; conditions: cited from earlier work
[4] = Plasma levels of ibuprofen after embolisation, intra-arterial or intravenous administration; format: in vivo; conditions: sheep, after intra-arterial administration (IA) of 50 mg solution in both left and right artery
[5] = 10 ml water, 37° C., released in the first 5 minutes
[6] = high AMPS microspheres 500-710 μm
[7] = in less than 30 minutes, low and high AMPS microspheres, 100 mg/ml in ethanol
[8] = low AMPS microspheres 500-710 μm

time of maximum loading ([1]; low and high AMPS microspheres, 30 mg/ml in ethanol, monitored over 72 hours): 24 h
SMILES: CC(C(=O)O)c1cccc(C(=O)c2ccccc2)c1 (stereo not shown) [Ketoprofen]
ketoprofen loaded/ml spheres, maximum loading ([1]; high AMPS microspheres 500-710 μm, 30 mg/ml in ethanol): approximately 10 mg ketoprofen loaded/ml spheres | ketoprofen loaded/ml spheres, maximum loading ([1]; low AMPS microspheres 500-710 μm, 30 mg/ml in ethanol): approximately 12 mg ketoprofen loaded/ml spheres

drug released per ml of microspheres [2, 5]: 6-9 mg/ml of microspheres | loaded drug released from the microspheres [2, 5]: 17-25% | further release after transfer to fresh water ([2]; transfer to 10 ml fresh water after 17 hours, measured 7 hours more): did not bring about any further release | naproxen taken up per ml of spheres ([1]; low or high AMPS microspheres 500-710 μm, 30 mg/ml in ethanol, over 168 hours): 35-40 mg naproxen/ml of spheres
SMILES: COc1ccc2cc([C@H](C)C(=O)O)ccc2c1 [Naproxen]

further release ([2]; further in 48 hrs, microspheres loaded with 26 and 30 mg/ml, 250 ml water at 37° C.): 35% | release ([2]; in first 5 minutes, microspheres loaded with 26 and 30 mg/ml, 250 ml water at 37° C.): 18-26% | dose loaded per ml of hydrated microspheres [1, 6]: 30 mg per ml of hydrated microsph | drug solution located in the microspheres [1, 7]: 99% | dose loaded per ml of hydrated microspheres [1, 8]: 26 mg per ml of hydrated microsph
SMILES: O=C(O)Cc1ccccc1Nc1c(Cl)cccc1Cl [Diclofenac]
HIF-2 alpha gene expression (HIF-2 alpha): inhibited | HIF-1 alpha gene expression (HIF-1 alpha): inhibited

SMILES: Cc1cc(CC(=O)O)n(C)c1C(=O)c1ccc(Cl)cc1 [Zomepirac]
Log [IC80 ratio WHMA COX-2/COX-1)] (COX-2/COX-1): 0

released ([2]; high AMPS loaded microspheres (so in the source), first 5 minutes, 250 ml water at 37° C.): 43% | further slow release ([2]; high AMPS loaded microspheres (so in the source), further in the next 24 hrs): 4% | released ([2]; high AMPS loaded microspheres (so in the source), in 1 hrs, 250 ml water at 37° C.): 90% | released ([2]; low loaded microspheres, first 5 minutes, 250 ml water at 37° C.): 75% | further release ([2]; low loaded microspheres, further in next 24 hrs): 5% | released ([2]; low loaded microspheres, in 1 hr, 250 ml water at 37° C.): 90% | ketorolac loaded in microspheres ([1]; high loaded microspheres): 27 mg/mL | drug solution located in the microspheres ([1]; in less than 10 minutes, low AMPS microspheres 500-710 μm, 50 mg/ml and 10 mg/ml in water): 99% | ketorolac loaded in microspheres ([1]; low loaded microspheres): 13 mg/mL
SMILES: O=C(c1ccccc1)c1ccc2n1CCC2C(=O)O (stereo not shown) [Ketorolac]
HIF-2 alpha gene expression (HIF-2 alpha): inhibited

SMILES: CC(C(=O)O)c1cccc(Oc2ccccc2)c1 (stereo not shown) [Fenoprofen]
Log [IC80 ratio WHMA COX-2/COX-1)] (COX-2/COX-1): 0

SMILES: CS(=O)(=O)Nc1ccc([N+](=O)[O-])cc1OC1CCCCC1 [NS398]
HIF-2 alpha gene expression (HIF-2 alpha): inhibition | expression of pro-angiogenic factors, including VEGF [3]: diminished

further release ([2]; further in 2 days, microspheres loaded with 200 mg/ml, 250 ml water at 37° C.): 5% | release ([2]; in first 10 minutes, microspheres loaded with 200 mg/ml, 250 ml water at 37° C.): 30% | dose loaded per ml of hydrated microspheres [1, 6]: 197 mg per ml of hydrated microsph | drug solution located in the microspheres [1, 7]: 99% | dose loaded per ml of hydrated microspheres [1, 8]: 195 mg per ml of hydrated microsph
SMILES: CC(C(=O)O)c1ccc(-c2ccccc2)c(F)c1 (stereo not shown) [Flurbiprofen]

SMILES: O=C(O)c1cccnc1Nc1cccc(C(F)(F)F)c1 [Niflumic Acid]
Log [IC80 ratio WHMA COX-2/COX-1)] (COX-2/COX-1): 0

Cmax [4]: 32000 ng/mL | Elution rate (range) ([2]; low AMPS microspheres, elution up to 90 mls, up to 24 hrs, over experiments of table 1): 20%-43% | Elution rate, average in most experiments ([2]; low AMPS microspheres, up to 24 hrs): 25% | Eluted Drug ([2]; quick burst/wash out solvent 50% ethanol, elution solvent 50% ethanol, up to 24 hrs): 53 mg | Eluted Drug ([2]; quick burst/wash out solvent 100% ethanol, elution solvent 0.9% Saline (pH 12), up to 24 hrs): 60 mg | Eluted Drug ([2]; quick burst/wash out solvent 100% ethanol, elution solvent 50% ethanol, up to 24 hrs): 47 mg | quick burst ([2]; wash of loaded low AMPS microspheres in various media): approximately 15% | Eluted Drug ([2]; wash out and elution solvent 0.9% Saline (pH 12), 2 ml loading solution, up to 24 hrs, listed as Ibuprofen Free Acid): 47 mg and 83 mg and 57 mg | Eluted Drug ([2]; wash out and elution solvent 0.9% Saline (pH 12), 3 ml loading solution, up to 24 hrs): 77 mg | Loading mg/ml Bead ([1]; 3 ml loading solution (250 mg/ml in ethanol) to 1 ml low AMPS microspheres): 323.7 mg/ml Bead | time at which optimum loading is obtained ([1]; loaded from ethanol, low AMPS beads 700 to 1100 μm, contraction then expels drug solution): around 20 mins
SMILES: CC(C)Cc1ccc(C(C)C(=O)O)cc1 (stereo not shown) [Ibuprofen]
HIF-2 alpha gene expression (HIF-2 alpha): inhibited | Loading mg/ml Bead ([1]; 2 ml loading solution (250 mg/ml in ethanol) to 1 ml low AMPS microspheres, listed as Ibuprofen Free Acid): 177.3 mg/ml Bead and 185.24 mg/ml Bead and 142.82 mg/ml Bead and 187.08 mg/ml Bead and 207.7 mg/ml Bead and 235.53 mg/ml Bead | doses loaded per ml of hydrated microspheres ([1]; low AMPS microspheres, 250 mg/ml in ethanol, range over series of experiments): 142-335 mg per ml of hydrated microspheres

salicylic acid loaded that was released ([2]; high AMPS microspheres, 37° C.): approximately 30% | salicylic acid loaded that was released ([2]; low AMPS microspheres, 37° C.): approximately 25% | further release after transferral into fresh water ([2]; transfer to 10 ml fresh water after 60 hours, measured 60 hours more): did not bring about any further release | maximum salicylic acid taken up per ml of microspheres ([1]; low or high AMPS 500-710 μm, 5 mg/ml in ethanol, after 3-4 hours): 3-4 mg salicylic acid/ml of microspheres | salicylic acid taken up per ml of microspheres ([1]; low or high AMPS 500-710 μm, 5 mg/ml in ethanol, after 24 hours): 2-3 mg/ml of microspheres
SMILES: O=C(O)c1ccccc1O [salicylic acid]

time at which maximum loading is reached ([1]; loaded from ethanol 250 mg/ml, low AMPS beads 700-1100 μm, loading decreases afterwards): about 20 minutes
SMILES: CC(C)Cc1ccc(C(C)C(=O)[O-])cc1.[Na+] (stereo not shown) [ibuprofen sodium salt]
loading levels, drug per ml of hydrated beads ([1]; range over six microsphere products, 2 ml of 100 mg/ml in water to 1 ml microspheres, 100 minute period): 67 to 142 mg of drug per ml of hydrated beads
